This is an account of results in US20240368565A1, “COMPLEMENTATION-BASED TAGS AND REPORTERS FOR DUAL-MODALITY LABELING” (Promega Corporation, priority 2023, published 2024).

The target in test [1] is HaloTag[22-297](M2F + F148M + V177E)-12xGly/Ser-LgBiT-3xGly/Ser-6xHis (Rhodococcus rhodochrous, UniProt P0A3G2, A155T/A167V/A172T/A224E/C128F/C176G/D78G/E160K/E257K/F168M/H272N/K175M/K195N/L47V/L88M/N227D/S58T/T264A/V197E/Y273L/Y87F). Description: biochemical. In kind it is binding.
The target in test [2] is HaloTag[22-297](M2F + K140E)-12xGly/Ser-LgBiT-3xGly/Ser-6xHis (Rhodococcus rhodochrous, UniProt P0A3G2, A155T/A167V/A172T/A224E/C128F/C176G/D78G/E257K/H272N/K175M/K195N/L47V/L88M/N227D/S58T/T264A/Y273L/Y87F). Description: biochemical. In kind it is binding. Particulars: KD, biotinylated peptide on streptavidin probes, PBST, 25° C.
HaloTag[22-297](M2F + K140E)-12xGly/Ser-LgBiT-3xGly/Ser-6xHis, sequence (P0A3G2 23-290 with tags or gaps with the stated changes): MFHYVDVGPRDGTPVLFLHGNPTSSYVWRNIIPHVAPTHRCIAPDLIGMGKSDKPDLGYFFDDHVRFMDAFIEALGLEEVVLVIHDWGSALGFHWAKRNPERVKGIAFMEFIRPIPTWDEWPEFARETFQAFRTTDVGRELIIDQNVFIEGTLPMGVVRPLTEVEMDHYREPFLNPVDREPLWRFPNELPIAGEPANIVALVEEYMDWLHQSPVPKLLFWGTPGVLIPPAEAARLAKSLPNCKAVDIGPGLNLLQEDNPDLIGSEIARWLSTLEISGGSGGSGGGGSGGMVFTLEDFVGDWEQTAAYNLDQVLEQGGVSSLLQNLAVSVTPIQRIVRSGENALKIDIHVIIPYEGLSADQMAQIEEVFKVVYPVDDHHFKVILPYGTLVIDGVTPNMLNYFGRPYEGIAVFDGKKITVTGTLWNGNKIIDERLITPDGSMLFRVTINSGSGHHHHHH
Test [3] addresses HaloTag[22-297](M2F)-12×Gly/Ser-LgBiT-6×His (Rhodococcus rhodochrous, UniProt P0A3G2, A155T/A167V/A172T/A224E/C128F/C176G/D78G/E160K/E257K/H272N/K175M/K195N/L47V/L88M/N227D/S58T/T264A/Y273L/Y87F). The test is classed as biochemical. The settings on record: purified reporter, 30 minutes at 4° C., furimazine.
Test [4] concerns the target HaloTag[22-297](M2F + D53G + V177E)-12xGly/Ser-LgBiT-3xGly/Ser-6xHis (Rhodococcus rhodochrous, UniProt P0A3G2, A155T/A167V/A172T/A224E/C128F/C176G/D73G/D78G/E160K/E257K/H272N/K175M/K195N/L47V/L88M/N227D/S58T/T264A/V197E/Y273L/Y87F). The test can be described thus: biochemical. The test is classed as binding.
The target of test [5] is HaloTag[22-297](M2F)-12xGly/Ser-LgBiT-3xGly/Ser-6xHis (Rhodococcus rhodochrous, UniProt P0A3G2, A155T/A167V/A172T/A224E/C128F/C176G/D78G/E160K/E257K/H272N/K175M/K195N/L47V/L88M/N227D/S58T/T264A/Y273L/Y87F). Description: biochemical. In kind it is binding.
HaloTag[22-297](M2F)-12xGly/Ser-LgBiT-3xGly/Ser-6xHis, sequence (P0A3G2 23-290 with tags or gaps with the stated changes): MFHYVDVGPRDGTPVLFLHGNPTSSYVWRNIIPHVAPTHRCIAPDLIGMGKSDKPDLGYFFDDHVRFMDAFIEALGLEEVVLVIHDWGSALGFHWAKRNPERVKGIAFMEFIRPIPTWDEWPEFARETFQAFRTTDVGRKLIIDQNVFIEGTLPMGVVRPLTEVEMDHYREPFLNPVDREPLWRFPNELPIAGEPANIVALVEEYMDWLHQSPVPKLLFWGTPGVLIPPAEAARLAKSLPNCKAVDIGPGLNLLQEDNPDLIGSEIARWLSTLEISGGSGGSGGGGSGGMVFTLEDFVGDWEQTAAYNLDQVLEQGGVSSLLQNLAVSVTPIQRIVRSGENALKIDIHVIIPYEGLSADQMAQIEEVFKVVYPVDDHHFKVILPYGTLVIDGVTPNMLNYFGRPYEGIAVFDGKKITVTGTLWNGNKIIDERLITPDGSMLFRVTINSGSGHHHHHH
Test [6] concerns the target HaloTag[22-297](M2F + D53G + K140E)-12xGly/Ser-LgBiT-3xGly/Ser-6xHis (Rhodococcus rhodochrous, UniProt P0A3G2, A155T/A167V/A172T/A224E/C128F/C176G/D73G/D78G/E257K/H272N/K175M/K195N/L47V/L88M/N227D/S58T/T264A/Y273L/Y87F). The test can be described thus: biochemical. The test is classed as binding.

Where “and” joins values, the source holds several entries; their conditions need not be identical. Equal entries are not always repeated. Peptide text beside a SMILES is read from it. * marks the point of attachment. Biotin = O=C1N[C@H]2[C@H](CS[C@H]2CCCCC(=O)*)N1

HaloTag[22-297](M2F + F148M + V177E)-12xGly/Ser-LgBiT-3xGly/Ser-6xHis, sequence (P0A3G2 23-290 with tags or gaps with the stated changes): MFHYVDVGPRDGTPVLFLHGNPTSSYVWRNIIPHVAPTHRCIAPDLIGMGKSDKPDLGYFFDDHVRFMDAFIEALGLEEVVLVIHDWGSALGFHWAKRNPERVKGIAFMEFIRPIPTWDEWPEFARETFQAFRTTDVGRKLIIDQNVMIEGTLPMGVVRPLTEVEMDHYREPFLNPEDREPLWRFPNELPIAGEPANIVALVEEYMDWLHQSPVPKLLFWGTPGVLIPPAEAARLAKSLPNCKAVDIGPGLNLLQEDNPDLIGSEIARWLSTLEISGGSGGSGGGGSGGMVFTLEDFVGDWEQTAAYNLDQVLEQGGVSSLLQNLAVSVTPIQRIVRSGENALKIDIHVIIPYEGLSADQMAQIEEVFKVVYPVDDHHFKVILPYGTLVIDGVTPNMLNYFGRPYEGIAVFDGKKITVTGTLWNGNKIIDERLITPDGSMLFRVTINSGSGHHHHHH
HaloTag[22-297](M2F + D53G + V177E)-12xGly/Ser-LgBiT-3xGly/Ser-6xHis, sequence (P0A3G2 23-290 with tags or gaps with the stated changes): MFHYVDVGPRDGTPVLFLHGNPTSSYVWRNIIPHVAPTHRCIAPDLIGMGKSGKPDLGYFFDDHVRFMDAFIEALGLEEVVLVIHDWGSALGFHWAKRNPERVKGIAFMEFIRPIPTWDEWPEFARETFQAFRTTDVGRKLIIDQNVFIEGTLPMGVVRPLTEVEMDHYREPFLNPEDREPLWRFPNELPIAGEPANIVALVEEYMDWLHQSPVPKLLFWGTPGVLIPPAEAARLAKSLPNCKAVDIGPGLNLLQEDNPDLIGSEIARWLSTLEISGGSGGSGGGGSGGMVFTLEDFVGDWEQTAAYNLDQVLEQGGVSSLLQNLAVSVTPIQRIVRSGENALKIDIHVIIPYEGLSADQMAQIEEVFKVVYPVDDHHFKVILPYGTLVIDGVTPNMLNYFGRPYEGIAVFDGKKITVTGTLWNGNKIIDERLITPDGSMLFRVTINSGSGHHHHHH
HaloTag[22-297](M2F + D53G + K140E)-12xGly/Ser-LgBiT-3xGly/Ser-6xHis, sequence (P0A3G2 23-290 with tags or gaps with the stated changes): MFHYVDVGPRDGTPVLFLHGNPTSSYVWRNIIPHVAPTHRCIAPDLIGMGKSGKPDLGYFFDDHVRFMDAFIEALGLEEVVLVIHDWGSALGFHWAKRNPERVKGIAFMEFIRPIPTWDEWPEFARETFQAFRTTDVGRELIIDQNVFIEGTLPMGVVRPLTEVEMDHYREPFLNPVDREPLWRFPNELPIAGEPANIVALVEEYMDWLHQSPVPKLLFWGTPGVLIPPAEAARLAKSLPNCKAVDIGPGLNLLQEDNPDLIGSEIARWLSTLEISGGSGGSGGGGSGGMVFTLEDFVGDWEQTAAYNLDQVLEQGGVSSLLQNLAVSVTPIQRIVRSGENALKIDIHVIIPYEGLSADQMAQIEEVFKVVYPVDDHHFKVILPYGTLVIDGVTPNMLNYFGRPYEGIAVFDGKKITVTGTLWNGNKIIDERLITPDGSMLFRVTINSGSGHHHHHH

As a reminder, the Kd is the constant that tells how readily two partners part at equilibrium. For the compound `CC[C@H](C)[C@H](NC(=O)[C@H](CCC(=O)O)NC(=O)CCCC[C@@H]1SC[C@@H]2NC(=O)N[C@@H]21)C(=O)NCC(=O)N[C@H](C(=O)N[C@@H](CCCNC(=N)N)C(=O)N[C@@H](Cc1ccccc1)C(=O)N1CCC[C@H]1C(=O)N[C@@H](Cc1ccccc1)C(=O)N[C@@H](CC(=O)O)C(=O)N1CCC[C@H]1C(=O)N[C@@H](Cc1c[nH]cn1)C(=O)N[C@@H](Cc1ccc(O)cc1)C(=O)N[C@H](C(=O)N[C@@H](CCC(=O)O)C(=O)N[C@H](C(=O)N[C@@H](CC(C)C)C(=O)NCC(=O)NCC(=O)NCC(=O)N[C@@H](CO)C(=O)NCC(=O)N[C@H](C(=O)N[C@@H](CO)C(=O)N[C@H](C(=O)N[C@@H](CO)C(=O)NCC(=O)N[C@@H](Cc1c[nH]c2ccccc12)C(=O)N[C@@H](CCCNC(=N)N)C(=O)N[C@@H](CC(C)C)C(=O)N[C@@H](Cc1ccccc1)C(=O)N[C@@H](CCCCN)C(=O)N[C@@H](CCCCN)C(=O)N[C@H](C(=O)N[C@@H](CO)C(=O)O)[C@@H](C)CC)C(C)C)C(C)C)C(C)C)C(C)C)[C@@H](C)O` [HaloTag[3-19](G5R)-4xGly/Ser-VSHiBiT] (Biotin-EIGTRFPFDPHYVEVLGGGSGVSVSGWRLFKKIS-OH), the Kd in test [1] came to 0.485 nM.
Regarding `CC[C@H](C)[C@H](NC(=O)[C@H](CCCCN)NC(=O)[C@H](CCCCN)NC(=O)[C@H](Cc1ccccc1)NC(=O)[C@H](CC(C)C)NC(=O)[C@H](CCCNC(=N)N)NC(=O)[C@H](Cc1c[nH]c2ccccc12)NC(=O)CNC(=O)[C@H](CO)NC(=O)[C@@H](NC(=O)[C@H](CO)NC(=O)[C@@H](NC(=O)CNC(=O)[C@H](CO)NC(=O)CNC(=O)CNC(=O)CNC(=O)[C@H](CC(C)C)NC(=O)[C@@H](NC(=O)[C@H](CCC(=O)O)NC(=O)[C@@H](NC(=O)[C@H](Cc1ccc(O)cc1)NC(=O)[C@H](Cc1c[nH]cn1)NC(=O)[C@@H]1CCCN1C(=O)[C@H](CC(=O)O)NC(=O)[C@H](Cc1ccccc1)NC(=O)[C@@H]1CCCN1C(=O)[C@H](Cc1ccccc1)NC(=O)CNC(=O)[C@@H](NC(=O)[C@H](CCCCN)NC(=O)[C@@H](NC(=O)[C@H](CCC(=O)O)NC(=O)CCCC[C@@H]1SC[C@@H]2NC(=O)N[C@@H]21)[C@@H](C)CC)[C@@H](C)O)C(C)C)C(C)C)C(C)C)C(C)C)C(=O)N[C@@H](CO)C(=O)O` [HaloTag[3-19](G3K)-4xGly/Ser-VSHiBiT] (Biotin-EIKTGFPFDPHYVEVLGGGSGVSVSGWRLFKKIS-OH), the Kd turned out to be 0.264 nM in test [2] and 0.102 nM in test [1].
“KFNDQWNYRANFLKIRRVSVSGWRLFKKIS [Peptide 1061]”: the “Complementing the reporter to enhance luminescence signal” value in test [3] is “still functional”.
As to `CC[C@H](C)[C@H](NC(=O)[C@H](CCCCN)NC(=O)[C@H](CCCCN)NC(=O)[C@H](Cc1ccccc1)NC(=O)[C@H](CC(C)C)NC(=O)[C@H](CCCNC(=N)N)NC(=O)[C@H](Cc1c[nH]c2ccccc12)NC(=O)CNC(=O)[C@H](CO)NC(=O)[C@@H](NC(=O)[C@H](CO)NC(=O)[C@@H](NC(=O)CNC(=O)[C@H](CO)NC(=O)CNC(=O)CNC(=O)CNC(=O)[C@H](CC(C)C)NC(=O)[C@@H](NC(=O)[C@H](CCC(=O)O)NC(=O)[C@@H](NC(=O)[C@H](Cc1ccc(O)cc1)NC(=O)[C@H](Cc1c[nH]cn1)NC(=O)[C@@H]1CCCN1C(=O)[C@H](CC(=O)O)NC(=O)[C@H](Cc1ccccc1)NC(=O)[C@@H]1CCCN1C(=O)[C@H](Cc1ccccc1)NC(=O)CNC(=O)[C@@H](NC(=O)CNC(=O)[C@H](CCCNC(=N)N)NC(=O)[C@H](CCC(=O)O)NC(=O)CCCC[C@@H]1SC[C@@H]2NC(=O)N[C@@H]21)[C@@H](C)O)C(C)C)C(C)C)C(C)C)C(C)C)C(=O)N[C@@H](CO)C(=O)O` [HaloTag[3-19](I2R)-4xGly/Ser-VSHiBiT] (Biotin-ERGTGFPFDPHYVEVLGGGSGVSVSGWRLFKKIS-OH), the Kd in test [4] was 0.669 nM; in test [2], 0.684 nM and 0.466 nM; in test [1] it was 0.509 nM; in test [5], 1.61 nM; in test [6] it was 0.576 nM.
